25 compounds from US12264139B2, “Aryl sulfonamides as BLT1 antagonists” (Merck Sharp & Dohme LLC, priority 2015, dated 2025) can be followed below.

T1 sequence (Q15722 whole entry): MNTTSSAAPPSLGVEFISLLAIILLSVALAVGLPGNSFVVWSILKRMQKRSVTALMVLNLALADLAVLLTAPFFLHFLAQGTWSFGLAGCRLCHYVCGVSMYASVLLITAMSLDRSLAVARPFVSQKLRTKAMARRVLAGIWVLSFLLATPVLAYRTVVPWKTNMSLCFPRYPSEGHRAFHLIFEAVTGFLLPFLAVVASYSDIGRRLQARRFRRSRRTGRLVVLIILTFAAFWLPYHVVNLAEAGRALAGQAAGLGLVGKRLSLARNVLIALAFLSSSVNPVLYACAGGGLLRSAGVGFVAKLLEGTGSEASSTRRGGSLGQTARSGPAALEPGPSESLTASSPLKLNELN

This assay has as its target T1, human BLT1 receptor (Homo sapiens, UniProt Q15722).
T1 construct: expressed in transfected cells; host or cells: HEK293
As to the kind of experiment: BLT-1 cAMP Assay. The class given is cell-based. The settings on record: HEK293 cells recombinantly expressing human BLT1; antagonist activity vs forskolin 4 μM and LTB4 2 nM; cAMP (CisBio kit). How it is done: The ability of compounds to antagonize the human BLT1 receptor was determined using a kit to measure changes in intracellular cyclic AMP levels (cAMP dynamic assay kit, Cisbio Cat. No. 62AM4PEC). […] The cell suspension was centrifuged at 200×g for 10 min and then resuspended in fresh assay medium to a density of 2.5×10^5 cells/mL. […] All subsequent liquid additions were performed using a BIORAPTR (FRD; Beckman Coulter). Next, 5 μL of cell suspension was added and incubated for 20 min. at 37° C. and 5% CO2 in a humidified plastic tray.
The levels of cAMP were detected using the CisBio kit following the manufacturer's instructions: cAMP-d2 vial was reconstituted with distilled water and then diluted accordingly with conjugate & lysis buffer. 5 µL of cAMP-d2 working solution was added to all of the wells of the assay plate. cAMP-Cryptate vial was reconstituted with distilled water and then diluted accordingly with conjugate & lysis buffer. 5 µL of cAMP-Cryptate working solution were added to the assay plate. The assay plate was shaken for 3 minutes and incubated at room temperature for 45 minutes, then read on Perkin Elmer Envision. cAMP standard curve and fit data were plotted using a 4 parameter dose response curve fitting algorithm to fit curve. […] After normalization to treated and untreated controls, the percent effect of signal at each compound concentration was calculated. The plot of percent effect versus the log of compound concentration was fit with a 4-parameter concentration response equation to calculate EC50 values.
With `O=S(=O)(Nc1ncccc1-c1ccc2c(c1)OC[C@@H](Cc1ccccn1)[C@@H]2O)C(F)F` (single isomer, unassigned) [Example 86, 1,1-Difluoro-N-(3-((3,4-trans)-4-hydroxy-3-(pyridin-2-ylmethyl)chroman-7-yl)pyridin-2-yl)methanesulfonamide], the EC50 (usually the concentration at which the effect is half-maximal) is 156 nM.
With `CC(c1csc(-c2ccccc2)n1)[C@@H]1COc2cc(-c3ccccc3NS(=O)(=O)C(F)(F)F)ccc2[C@H]1O` (single isomer, unassigned) [Example 92] the figure was 80 nM; with `CC(c1ccccn1)C1COc2cc(-c3cc(F)ccc3NS(=O)(=O)C(F)(F)F)ccc2C1O` (single isomer, unassigned) [Example 101, 1,1,1-trifluoro-N-(4-fluoro-2-(4-hydroxy-3-(1-(pyridin-2-yl)ethyl)chroman-7-yl)phenyl) methanesulfonamide], 678 nM; with `Cn1nc(-c2ccccc2)cc1C[C@H]1COc2cc(-c3ccccc3NS(=O)(=O)C(F)(F)F)ccc2[C@@H]1O` (racemic) [Example 35, 1,1,1-Trifluoro-N-(2-((rac-trans)-4-hydroxy-3-((1-methyl-3-phenyl-1H-pyrazol-5-yl)methyl)chroman-7-yl)phenyl)methanesulfonamide], 824 nM.
Under `O=S(=O)(Nc1ccccc1-c1ccc2c(c1)OC[C@@H](Cc1ccccn1)[C@@H]2O)C(F)(F)F` [Example 55, 1,1,1-trifluoro-N-{2-[(3R,4S)-4-hydroxy-3-(pyridin-2-ylmethyl)-3,4-dihydro-2H-chromen-7-yl]phenyl}-methanesulfonamide] stands 2020 nM.
With `Cc1nnc(C[C@H]2COc3cc(-c4ccccc4NS(=O)(=O)C(F)(F)F)ccc3[C@@H]2O)s1` (racemic) [Example 23, 1,1,1-Trifluoro-N-(2-{(rac-trans)-4-hydroxy-3-[(5-methyl-1,3,4-thiadiazol-2-yl)methyl]-3,4-dihydro-2H-chromen-7-yl}phenyl)methanesulfonamide] the figure was 32 nM; with `O=S(=O)(Nc1ccccc1-c1ccc2c(c1)OC[C@H](Cc1ccncc1)[C@H]2O)C(F)(F)F` (single isomer, unassigned) [Example 26, 1,1,1-trifluoro-N-{2-[(3S,4R or 3R,4S)-4-hydroxy-3-(pyridin-4-ylmethyl)-3,4-dihydro-2H-chromen-7-yl]phenyl}methanesulfonamide], 121 nM.
Regarding `Cc1nc(C[C@@H]2COc3cc(-c4ccccc4NS(=O)(=O)C(F)(F)F)ccc3[C@H]2O)cs1` (single isomer, unassigned) [Example 56, 1,1,1-Trifluoro-N-(2-{(3R,4S or 3S,4R)-4-hydroxy-3-[(2-methyl-1,3-thiazol-4-yl)methyl]-3,4-dihydro-2H-chromen-7-yl}phenyl)-methanesulfonamide], the EC50 was 826 nM.
With `O=S(=O)(Nc1ccccc1-c1ccc2c(c1)OCC(Cc1ccc(-c3ccccc3)s1)C2O)C(F)(F)F` (racemic) [Example 5, 1,1,1-Trifluoro-N-(2-((3,4-rac-trans)-4-hydroxy-3-((5-phenylthiophen-2-yl)methyl)chroman-7-yl)phenyl)methanesulfonamide] the figure was 9 nM; with `O=S(=O)(Nc1ccccc1-c1ccc2c(c1)OC[C@H](Cc1ccccn1)[C@H]2O)C(F)(F)F` [Example 54, 1,1,1-trifluoro-N-{2-[(3S,4R)-4-hydroxy-3-(pyridin-2-ylmethyl)-3,4-dihydro-2H-chromen-7-yl]phenyl}-methanesulfonamide], 55 nM; with `O=S(=O)(Nc1nnc(Cl)cc1-c1ccc2c(c1)OC[C@@H](Cc1ccccn1)[C@@H]2O)C(F)(F)F` (single isomer, unassigned) [Example 91, N-(6-chloro-4-((3S,4R or 3R,4S)-4-hydroxy-3-(pyridin-2-ylmethyl)chroman-7-yl)pyridazin-3-yl)-1,1,1-trifluoromethanesulfonamide], 2690 nM.
`Cc1cnc(C[C@H]2COc3cc(-c4ccccc4NS(=O)(=O)C(F)(F)F)ccc3[C@@H]2O)s1` (single isomer, unassigned) [Example 53, 1,1,1-trifluoro-N-(2-{(3R,4S or 3S,4R)-4-hydroxy-3-[(5-methyl-1,3-thiazol-2-yl)methyl]-3,4-dihydro-2H-chromen-7-yl}phenyl)methanesulfonamide]: the EC50 amounted to 69 nM.
With `O=S(=O)(Nc1ccccc1-c1ccc2c(c1)OC[C@H](Cc1cccnn1)[C@H]2O)C(F)(F)F` (racemic) [Example 28, 1,1,1-Trifluoro-N-{2-[(rac-trans)-4-hydroxy-3-(pyridazin-3-ylmethyl)-3,4-dihydro-2H-chromen-7-yl]phenyl}methanesulfonamide], the EC50 worked out at 2140 nM.
With `O=S(=O)(Nc1nnccc1-c1ccc2c(c1)OC[C@@H](Cc1ccccn1)[C@@H]2O)C(F)(F)F` (single isomer, unassigned) [Example 90, N-(4-((3,4-trans)-4-hydroxy-3-(pyridin-2-ylmethyl)chroman-7-yl)pyridazin-3-yl)-1,1,1-trifluoromethanesulfonamide] the figure was 3080 nM; with `O=S(=O)(Nc1ccccc1-c1ccc2c(c1)OC[C@@H](Cc1ccc(-c3ccccc3)cc1)[C@@H]2O)C(F)(F)F` (single isomer, unassigned) [Example 67, N-{2-[(3S,4R or 3R,4S)-3-(biphenyl-4-ylmethyl)-4-hydroxy-3,4-dihydro-2H-chromen-7-yl]phenyl}-1,1,1-trifluoromethanesulfonamide], 48 nM.
With `O=S(=O)(Nc1ccccc1-c1ccc2c(c1)OC[C@@H](Cc1ccc(-c3ccccc3)cn1)[C@@H]2O)C(F)(F)F` (single isomer, unassigned) [Example 40, (2-((3R,4S or 3S,4R)-4-hydroxy-3-((5-phenylpyridin-2-yl)methyl)chroman-7-yl)phenyl)((trifluoromethyl)sulfonyl)amide] the figure was 18 nM; with `CC(c1ccccn1)C1COc2cc(-c3cc(F)ccc3NS(=O)(=O)C(F)(F)F)ccc2C1O` (single isomer, unassigned) [Example 102, 1,1,1-trifluoro-N-(4-fluoro-2-(4-hydroxy-3-(1-(pyridin-2-yl)ethyl)chroman-7-yl)phenyl) methanesulfonamide], 78 nM; with `O=S(=O)(Nc1ccccc1-c1ccc2c(c1)OC[C@@H](Cc1nnc(-c3ccc(F)cc3)o1)[C@@H]2O)C(F)(F)F` (relative stereo) [Example 44, 1,1,1-Trifluoro-N-(2-((3,4-trans)-3-((5-(4-fluorophenyl)-1,3,4-oxadiazol-2-yl)methyl)-4-hydroxychroman-7-yl)phenyl)methanesulfonamide], 1550 nM.
`O=S(=O)(Nc1ccccc1-c1ccc2c(c1)OC[C@H](Cc1cccs1)[C@H]2O)C(F)(F)F` (single isomer, unassigned) [Example 62, 1,1,1-trifluoro-N-{2-[(3S,4R or 3R,4S)-4-hydroxy-3-(thiophen-2-ylmethyl)-3,4-dihydro-2H-chromen-7-yl]phenyl}methanesulfonamide]: the half-maximal effective concentration (EC50) turned out to be 23 nM.
With `O=S(=O)(Nc1ccccc1-c1ccc2c(c1)OCC(Cc1cn[nH]c1)C2O)C(F)(F)F` (racemic) [Example 12, N-(2-((3,4-Rac-trans)-3-((1H-pyrazol-4-yl)methyl)-4-hydroxychroman-7-yl)phenyl)-1,1,1-trifluoromethanesulfonamide] the figure was 1650 nM; with `O=S(=O)(Nc1ncccc1-c1ccc2c(c1)OC[C@@H](Cc1ccccn1)[C@@H]2O)C(F)(F)F` (single isomer, unassigned) [Example 87, 1,1,1-Trifluoro-N-(3-((3,4-trans)-4-hydroxy-3-(pyridin-2-ylmethyl)chroman-7-yl)pyridin-2-yl)methanesulfonamide], 239 nM; with `O=S(=O)(Nc1ccccc1-c1ccc2c(c1)OCC(Cc1cccnc1)C2O)C(F)(F)F` (racemic) [Example 7, 1,1,1-Trifluoro-N-(2-((3,4-rac-trans)-4-hydroxy-3-(pyridin-3-ylmethyl)chroman-7-yl)phenyl)methanesulfonamide], 3510 nM.
Take `O=S(=O)(Nc1ccccc1-c1ccc2c(c1)OC[C@@H](Cc1ccc(-c3ccccc3)cc1)[C@H]2O)C(F)(F)F` (racemic) [Example 3, N-(2-((3,4-Rac-cis)-3-([1,1′-biphenyl]-4-ylmethyl)-4-hydroxychroman-7-yl)phenyl)-1,1,1-trifluoromethanesulfonamide]: the EC50 amounted to 2290 nM.
Under `Cc1cccc(C[C@@H]2COc3cc(-c4ccccc4NS(=O)(=O)C(F)(F)F)ccc3[C@H]2O)n1` (single isomer, unassigned) [Example 63, 1,1,1-Trifluoro-N-(2-{(3,4-trans)-4-hydroxy-3-[(6-methyl-pyridin-2-yl)methyl]-3,4-dihydro-2H-chromen-7-yl}-phenyl)methanesulfonamide] stands 320 nM; under `O=S(=O)(CC(F)(F)F)Nc1ccccc1-c1ccc2c(c1)OC[C@@H](Cc1ccccn1)[C@@H]2O` (single isomer, unassigned) [Example 80, 2,2,2-Trifluoro-N-(2-((3S,4R or 3R,4S)-4-hydroxy-3-(pyridin-2-ylmethyl)chroman-7-yl)phenyl)ethanesulfonamide], 481 nM.
